Measured values taken from patent publication US20260144788A1, “COMPOUND FOR SHP2 PROTEIN DEGRADATION AND MEDICAL USES THEREOF” (UBIX THERAPEUTICS, INC., priority 2022, published 2026).

Target: T1, SHP2 protein (Homo sapiens, UniProt Q06124)
T1 sequence (Q06124 1-593): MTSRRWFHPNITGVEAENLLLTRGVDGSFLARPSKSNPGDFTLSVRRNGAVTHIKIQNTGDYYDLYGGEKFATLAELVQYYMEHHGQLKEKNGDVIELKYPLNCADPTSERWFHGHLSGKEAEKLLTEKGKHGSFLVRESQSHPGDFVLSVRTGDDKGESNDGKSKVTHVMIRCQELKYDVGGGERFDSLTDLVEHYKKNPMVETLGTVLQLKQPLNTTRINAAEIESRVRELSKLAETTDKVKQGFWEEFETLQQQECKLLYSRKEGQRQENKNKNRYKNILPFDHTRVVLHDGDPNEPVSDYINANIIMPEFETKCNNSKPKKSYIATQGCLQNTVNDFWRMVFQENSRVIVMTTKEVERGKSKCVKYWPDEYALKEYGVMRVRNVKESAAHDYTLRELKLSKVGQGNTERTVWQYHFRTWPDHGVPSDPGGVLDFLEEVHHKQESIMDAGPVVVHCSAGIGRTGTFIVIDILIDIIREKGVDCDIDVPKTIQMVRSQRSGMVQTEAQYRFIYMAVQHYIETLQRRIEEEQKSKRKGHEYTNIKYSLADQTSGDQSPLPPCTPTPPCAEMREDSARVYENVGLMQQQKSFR
Assay: Measurement of SHP2 protein degradation in NCI-H358 cells (western blotting)
Type: cell-based
Set-up: endogenous in cells; host or cells: NCI-H358
Conditions: harvested after 24 hours
Procedure: H358 cells were treated with the synthesized Example compounds, and the amount of SHP2 protein present in the cells was measured using western blotting detection. The protocol for the experiment using H358 cells is as follows.
[Culture]H358 cells were resuspended in RPMI1640 with 25 mM HEPES (Hyclone, SH30255.01), 10% FBS (Hyclone, SV30207.02), 1% Penicillin-streptomycin (Welgene, LS 202-02) media, seeded at 3×10^5/mL in 12-well plates (1 mL each), and cultured for 24 hours.
[Compound treatment] Before compound treatment, the media was changed to 1 mL media, and then the 12-well plate was treated as follows. The 10 mM stock dissolved in DMSO was serially diluted 1/100 or 1/10 with the media, and the compound was treated to the cells at a final concentration of 0.001, 0.01, and 0.1 μM, and harvested after 24 hours. For the negative control group, DMSO diluted 1/1000 in the media was added (1 μL DMSO+999 μL media).
[Harvest]24 hours after compound treatment, each well was scraped with a cell lifter (SPL, 90040), pipetted with a 1 mL pipette, collected in a 1.5 mL microtube, and centrifuged (500 g, 5 min, 4° C.). The supernatant was removed, washed with PBS, and centrifuged again (500 g, 5 min, 4° C.). Afterwards, the supernatant was removed to prepare a pellet.
[Cell lysis and sample preparation] Lysis buffer was prepared as follows. RIPA buffer (Biosesang, RC2038-050-00)+0.5 mM PMSF (SIGMA, P7626)+1× Protease/Phosphatase Inhibitor (Cell signaling, 5872S) were added at 30 μL per tube, vortexed, and incubated on ice for 30 minutes. Afterwards, sonication was performed (10 sec pulse, 30 sec rest, 5 cycles, 70% amplification) and centrifugation was performed (15,000 g, 15 min, 4° C.), and only the supernatant was transferred to a microtube. A 96-well plate was diluted to 1/4 with 7.5 μL of RIPA buffer and 2.5 μL of sample, and 200 μL each was added after mixing A and B of the BCA Protein Assay Kit (iNtRON, 21071) in a ratio of 50:1. The plate was incubated at 37° C. for 30 minutes and left at room temperature for 10 minutes. After shaking for 10 seconds with a SYNERGY H1 microplate reader from BioTek, the absorbance was measured at 562 nm. The protein was quantified using the measured value to make a sample, which was then incubated at 70° C. for 10 minutes. The sample buffer used here was a mixture of NuPAGE or Bolt 4× sample buffer (Invitrogen) and each 10× sample reducing agent depending on the gel to be used, and RIPA buffer was used for protein dilution.
[Western blotting detection] Equal amounts of samples were loaded onto NuPAGE or Bolt Bis-tris 4-12% gradient gel and run (200 V, 35 min). This was transferred to […] NC membrane using Trans-blot Turbo (BIO-RAD) (1.3 A constant, 25 V limit, 15 min), and blocked with 5% skim milk/0.2% TBST for 45 min at room temperature. Anti-SHPTP2 Mouse (1:1,000 in 5% skim milk/0.2% TBST, size: 70 kDa, Santa cruz sc-7384) and Anti-GAPDH Rabbit (1:2,000 in 5% skim milk or 5% BSA/0.2% TBST, size: 37 kDa, CST #2118) were added and incubated overnight at 4° C. After washing three times with 0.2% TBST washing buffer for 5 minutes each, secondary antibodies Anti-Mouse IgG (1:5,000 in 5% skim milk/0.2% TBST, CST) and IRDye® 680RD Goat anti-Rabbit IgG Secondary Antibody (1:10,000 in 5% skim milk/0.2% TBST, LI-COR 926-68071) were added, and incubated on a rocker at room temperature for 45 minutes. The resultants were washed five times with 0.2% TBST washing buffer for 5 minutes each, and detected using LI-COR's Odyssey. GAPDH was detected with a 700 nm channel, and SHPTP2 was detected using SuperSignal West Pico PLUS Chemiluminescent Substrate.

| SMILES | SHP2% degradation (0.01 μM) [%] | SHP2% degradation (0.1 μM) [%] |
| --- | --- | --- |
| Cc1ncsc1-c1ccc(CNC(=O)[C@@H]2C[C@@H](O)CN2C(=O)[C@@H](NC(=O)C2(F)CC2)C(C)(C)C)c(OC2CCN(CC3(O)CCN(c4nccc(Sc5cnc(N6CCC(C)(CN)CC6)cn5)c4Cl)CC3)CC2)c1 [Example 10, (2S,4R)—N-(2-((1-((1-(4-((5-(4-(aminomethyl)-4-methylpiperidin-1-yl)pyrazin-2-yl)thio)-3-chloropyridin-2-yl)-4-hydroxypiperidin-4-yl)methyl)piperidin-4-yl)oxy)-4-(4-methylthiazol-5-yl)benzyl)-1-((S)-2-(1-fluorocyclopropane-1-carboxamido)-3,3-dimethylbutanoyl)-4-hydroxypyrrolidine-2-carboxamide] | −8.0 | 93.9 |
| Cc1ncsc1-c1ccc(CNC(=O)[C@@H]2C[C@@H](O)CN2C(=O)[C@@H](NC(=O)C2(F)CC2)C(C)(C)C)c(O[C@H]2CC[C@H](C(=O)N3CC(Nc4cccc(Sc5cnc(N6CCC7(CC6)Cc6ncccc6[C@H]7N)cn5)c4Cl)C3)CC2)c1 [Example 15, (2S,4R)—N-(2-(((1R,4S)-4-(3-((3-((5-((S)-5-amino-5,7-dihydrospiro[cyclopenta[b]pyridine-6,4′-piperidin]-1′-yl)pyrazin-2-yl)thio)-2-chlorophenyl)amino)azetidine-1-carbonyl)cyclohexyl)oxy)-4-(4-methylthiazol-5-yl)benzyl)-1-((S)-2-(1-fluorocyclopropane-1-carboxamido)-3,3-dimethylbutanoyl)-4-hydroxypyrrolidine-2-carboxamide] | 93.5 | 99.6 |
| CC(=O)N[C@H](C(=O)N1C[C@H](O)C[C@H]1C(=O)NCc1ccc(-c2scnc2C)cc1O[C@H]1CC[C@H](C(=O)N2CC(Nc3cccc(Sc4cnc(N5CCC(C)(N)CC5)cn4)c3Cl)C2)CC1)C(C)(C)C [Example 28, (2S,4R)-1-((S)-2-acetamido-3,3-dimethylbutanoyl)-N-(2-(((1R,4S)-4-(3-((3-((5-(4-amino-4-methylpiperidin-1-yl)pyrazin-2-yl)thio)-2-chlorophenyl)amino)azetidine-1-carbonyl)cyclohexyl)oxy)-4-(4-methylthiazol-5-yl)benzyl)-4-hydroxypyrrolidine-2-carboxamide] | 86.9 | 98.5 |
| CC(=O)N[C@H](C(=O)N1C[C@H](O)C[C@H]1C(=O)NCc1ccc(-c2scnc2C)cc1O[C@H]1CC[C@H](C(=O)N2CC(Nc3cccc(Sc4cnc(N5CCC6(CC5)Cc5ncccc5[C@H]6N)cn4)c3Cl)C2)CC1)C(C)(C)C [Example 31, (2S,4R)-1-((S)-2-acetamido-3,3-dimethylbutanoyl)-N-(2-(((1R,4S)-4-(3-((3-((5-((S)-5-amino-5,7-dihydrospiro[cyclopenta[b]pyridine-6,4′-piperidin]-1′-yl)pyrazin-2-yl)thio)-2-chlorophenyl)amino)azetidine-1-carbonyl)cyclohexyl)oxy)-4-(4-methylthiazol-5-yl)benzyl)-4-hydroxypyrrolidine-2-carboxamide] | 76.3 | 99.4 |

Continued, values first:

| SHP2% degradation (0.01 μM) [%] | SHP2% degradation (0.1 μM) [%] | SMILES |
| --- | --- | --- |
| 95.7 | 97.1 | Cc1ncsc1-c1ccc(CNC(=O)[C@@H]2C[C@@H](O)CN2C(=O)[C@@H](NC(=O)C2(F)CC2)C(C)(C)C)c(O[C@H]2CC[C@H](C(=O)N3CC(Nc4nccc(Sc5cnc(N6CCC7(CC6)CO[C@@H](C)[C@H]7N)cn5)c4Cl)C3)CC2)c1 [Example 22, (2S,4R)—N-(2-(((1R,4S)-4-(3-((4-((5-((3S,4S)-4-amino-3-methyl-2-oxa-8-azaspiro[4.5]decan-8-yl)pyrazin-2-yl)thio)-3-chloropyridin-2-yl)amino)azetidine-1-carbonyl)cyclohexyl)oxy)-4-(4-methylthiazol-5-yl)benzyl)-1-((S)-2-(1-fluorocyclopropane-1-carboxamido)-3,3-dimethylbutanoyl)-4-hydroxypyrrolidine-2-carboxamide] |
| 94.2 | 97.0 | Cc1ncsc1-c1ccc(CNC(=O)[C@@H]2C[C@@H](O)CN2C(=O)[C@@H](NC(=O)C2(F)CC2)C(C)(C)C)c(O[C@H]2CC[C@H](C(=O)N3CCC(Nc4nccc(Sc5cnc(N6CCC7(CC6)CO[C@@H](C)[C@H]7N)cn5)c4Cl)CC3)CC2)c1 [Example 25, (2S,4R)—N-(2-(((1R,4S)-4-(4-((4-((5-((3S,4S)-4-amino-3-methyl-2-oxa-8-azaspiro[4.5]decan-8-yl)pyrazin-2-yl)thio)-3-chloropyridin-2-yl)amino)piperidine-1-carbonyl)cyclohexyl)oxy)-4-(4-methylthiazol-5-yl)benzyl)-1-((S)-2-(1-fluorocyclopropane-1-carboxamido)-3,3-dimethylbutanoyl)-4-hydroxypyrrolidine-2-carboxamide] |
| 54.4 | 98.5 | CC(=O)N[C@H](C(=O)N1C[C@H](O)C[C@H]1C(=O)NCc1ccc(-c2scnc2C)cc1O[C@H]1CC[C@H](C(=O)N2CC(N3CCc4c(Sc5cnc(N6CCC7(CC6)CO[C@@H](C)[C@H]7N)cn5)cccc43)C2)CC1)C(C)(C)C [Example 32, (2S,4R)-1-((S)-2-acetamido-3,3-dimethylbutanoyl)-N-(2-(((1R,4S)-4-(3-(4-((5-((3S,4S)-4-amino-3-methyl-2-oxa-8-azaspiro[4.5]decan-8-yl)pyrazin-2-yl)thio)indolin-1-yl)azetidine-1-carbonyl)cyclohexyl)oxy)-4-(4-methylthiazol-5-yl)benzyl)-4-hydroxypyrrolidine-2-carboxamide] |
| 96.6 | 99.1 | CC(=O)N[C@H](C(=O)N1C[C@H](O)C[C@H]1C(=O)NCc1ccc(-c2scnc2C)cc1O[C@H]1CC[C@H](C(=O)N2CCC(N3CCc4c(Sc5cnc(N6CCC7(CC6)CO[C@@H](C)[C@H]7N)cn5)cccc43)CC2)CC1)C(C)(C)C [Example 33, (2S,4R)-1-((S)-2-acetamido-3,3-dimethylbutanoyl)-N-(2-(((1R,4S)-4-(4-(4-((5-((3S,4S)-4-amino-3-methyl-2-oxa-8-azaspiro[4.5]decan-8-yl)pyrazin-2-yl)thio)indolin-1-yl)piperidine-1-carbonyl)cyclohexyl)oxy)-4-(4-methylthiazol-5-yl)benzyl)-4-hydroxypyrrolidine-2-carboxamide] |
